Source: patent US20220323406A1, “METHODS AND COMPOSITIONS FOR DIFFERENTIATING STEM CELLS” (Massachusetts Institute of Technology, priority 2019, published 2022)
Counter-ions that a name gives are not always drawn.

Tests used:
[1] = test system: ENR+CD organoids; test: Primary screen: ATP (CellTiter-Glo 3D, CTG) cell number/viability, 2.5-D 384-well ENR+CD organoids; settings: primary screen; for Dose.FC.CTG: FC relative to plate median; for Z.CTG: standard z score;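 on all read-outs here: compounds given at plating and again on day 3 over a 6-day differentiation from ENR+CV stem-cell-enriched precursors, ATP measured on day 6, plate median as control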
[2] = test system: ENR+CD organoids (ISC to Paneth cell differentiation); test: Primary screen: basal (non-stimulated) lysozyme secretion LYZ.NS, 2.5-D 384-well ENR+CD organoid differentiation; type: cell-based, mouse; settings: for primary screen hit call (SSMD and z-scored FC cutoffs in both LYZ assays): LYZ.NS and LYZ.S, 0.08-10 uM, 6 days ENR+CD; for Dose.FC.LYZ.NS: FC relative to plate median; for Z.LYZ.NS: standard z score
Text: (§1) High-throughput screening.

[3] = test system: ENR+CD organoids (ISC to Paneth cell differentiation); test: Secondary (validation) screen: LYZ.NS basal lysozyme secretion, 2.5-D 384-well ENR+CD organoids; type: cell-based, mouse; settings: 6-day ENR+CD, vs ENR+CD+DMSO
Protocol: (§2) Drugs were tested at a narrowed dose range around each treatment's identified optimal dose from the primary screen (4× below, 2× above and below).
as §1
(§3) Secondary lysozyme secretion assay screen. Confirmatory secondary screening with primary hits was performed using the above 384-well plate method. The screen was conducted with 4-plate replicates with a base media of ENR+CD. Media was supplemented with compound at day 0 and day 3 (n=8 well replicates per dose) at four different doses: two-fold above, two-fold below, and four-fold below the optimal final dose for each respective treatment. Additionally, each plate carried a large number of ENR+DMSO or ENR+CD+DMSO (vehicle) control wells (n=100 for ATP, and n=25 for LYZ.NS and LYZ.S) for robust normalization. ATP, non-stimulated lysozyme activity and CCh-stimulated lysozyme activity was again measured and the collected data was again processed in a custom R-script, per primary screen with slight modification. Values were log10 transformed, and a plate-wise FC was calculated for each well based on the median value of ENR+CD+DMSO (vehicle) control wells to normalize plate to plate variability.

[4] = test system: ENR+CD organoids (ISC to Paneth cell differentiation); test: Primary screen: CCh-stimulated lysozyme secretion LYZ.S, 2.5-D 384-well ENR+CD organoid differentiation; type: cell-based, mouse; settings: primary screen, FC relative to plate median
Text: as §1

[5] = test system: ENR+CD organoids; test: Secondary (validation) screen: ATP (CTG) assay, 2.5-D 384-well ENR+CD organoids; type: cell-based, mouse; settings: 6-day ENR+CD, vs ENR+CD+DMSO
Protocol: as §2, §1, §3

[6] = test system: ENR+CD organoids (ISC to Paneth cell differentiation); test: Secondary (validation) screen: LYZ.S CCh-stimulated lysozyme secretion, 2.5-D 384-well ENR+CD organoids; type: cell-based, mouse; settings: 6-day ENR+CD, vs ENR+CD+DMSO
Protocol: as §2, §1, §3

Compound: C[C@H](NCc1ccc(OCc2cccc(F)c2)cc1)C(N)=O [Safinamide Mesylate, reference compound]
- Dose.FC.CTG ([1]; dose 0.08 uM): 0.265 log2 fold change
- Dose.FC.CTG ([1]; dose 0.40 uM): 0.241 log2 fold change
- Dose.FC.CTG ([1]; dose 2.00 uM): 0.263 log2 fold change
- Dose.FC.CTG ([1]; dose 10.00 uM): 0.369 log2 fold change
- primary screen hit call (SSMD and z-scored FC cutoffs in both LYZ assays) [2]: sole hit in their respective pathway
- Dose.FC.LYZ.NS ([2]; primary screen, dose 0.08 uM): 0.160 log2 fold change
- Z.LYZ.NS ([2]; primary screen, dose 0.08 uM): 1.394
- Dose.FC.LYZ.NS ([2]; primary screen, dose 0.40 uM): 0.093 log2 fold change
- Z.LYZ.NS ([2]; primary screen, dose 0.40 uM): 0.814
- Dose.FC.LYZ.NS ([2]; primary screen, dose 2.00 uM): 0.174 log2 fold change
- Z.LYZ.NS ([2]; primary screen, dose 2.00 uM): 1.518
- Dose.FC.LYZ.NS ([2]; primary screen, dose 10.00 uM): 0.057 log2 fold change
- Z.LYZ.NS ([2]; primary screen, dose 10.00 uM): 0.499
- Dose.FC.LYZ.NS ([3]; 0.50 uM): −0.156 log2 fold change
- Dose.FC.LYZ.NS ([3]; 1.00 uM): −0.231 log2 fold change
- Dose.FC.LYZ.NS ([3]; 2.00 uM): −0.046 log2 fold change
- Dose.FC.LYZ.NS ([3]; 4.00 uM): −0.034 log2 fold change
- Dose.FC.LYZ.S ([4]; dose 0.08 uM): 0.302 log2 fold change
- Dose.FC.LYZ.S ([4]; dose 0.40 uM): 0.191 log2 fold change
- Dose.FC.LYZ.S ([4]; dose 2.00 uM): 0.236 log2 fold change
- Dose.FC.LYZ.S ([4]; dose 10.00 uM): 0.143 log2 fold change
- Dose.FC.CTG ([5]; 0.50 uM): −0.014 log2 fold change
- Dose.FC.CTG ([5]; 1.00 uM): −0.082 log2 fold change
- Dose.FC.CTG ([5]; 2.00 uM): −0.011 log2 fold change
- Dose.FC.CTG ([5]; 4.00 uM): −0.002 log2 fold change
- Dose.FC.LYZ.S ([6]; 0.50 uM): −0.213 log2 fold change
- Dose.FC.LYZ.S ([6]; 1.00 uM): −0.294 log2 fold change
- Dose.FC.LYZ.S ([6]; 2.00 uM): −0.099 log2 fold change
- Dose.FC.LYZ.S ([6]; 4.00 uM): −0.086 log2 fold change

Compound: NC(=O)c1ccc(-c2nc(-c3ccccn3)c(-c3ccc4c(c3)OCO4)[nH]2)cc1 [SB431542]
- increase of cell viability compared with LY215799 [1]: outperformed LY215799
- Dose.FC.CTG ([1]; dose 0.08 uM): 0.380 log2 fold change
- Z.CTG ([1]; dose 0.08 uM): 0.907
- Dose.FC.CTG ([1]; dose 0.40 uM): 0.473 log2 fold change
- Z.CTG ([1]; dose 0.40 uM): 1.130
- Dose.FC.CTG ([1]; dose 2.00 uM): 0.316 log2 fold change
- Z.CTG ([1]; dose 2.00 uM): 0.754
- Dose.FC.CTG ([1]; dose 10.00 uM): 0.155 log2 fold change
- Z.CTG ([1]; dose 10.00 uM): 0.370
- primary screen hit call (SSMD and z-scored FC cutoffs in both LYZ assays) [2]: selected as a hit
- performance on both LYZ assays compared with LY215799 ([2]; primary screen): performed almost identically to LY215799
- Dose.FC.LYZ.NS ([2]; primary screen, dose 0.08 uM): 0.141 log2 fold change
- Z.LYZ.NS ([2]; primary screen, dose 0.08 uM): 1.225
- Dose.FC.LYZ.NS ([2]; primary screen, dose 0.40 uM): 0.174 log2 fold change
- Z.LYZ.NS ([2]; primary screen, dose 0.40 uM): 1.514
- Dose.FC.LYZ.NS ([2]; primary screen, dose 2.00 uM): 0.187 log2 fold change
- Z.LYZ.NS ([2]; primary screen, dose 2.00 uM): 1.632
- Dose.FC.LYZ.NS ([2]; primary screen, dose 10.00 uM): 0.040 log2 fold change
- Z.LYZ.NS ([2]; primary screen, dose 10.00 uM): 0.346
- Dose.FC.LYZ.NS ([3]; 0.06 uM): 0.089 log2 fold change
- Z.LYZ.NS ([3]; 0.06 uM): 0.709
- repSSMD.LYZ.NS ([3]; 0.06 uM): 1.073
- Dose.FC.LYZ.NS ([3]; 0.24 uM): 0.105 log2 fold change
- Z.LYZ.NS ([3]; 0.24 uM): 0.838
- repSSMD.LYZ.NS ([3]; 0.24 uM): 0.830
- Dose.FC.LYZ.NS ([3]; 0.48 uM): −0.016 log2 fold change
- Z.LYZ.NS ([3]; 0.48 uM): −0.128
- repSSMD.LYZ.NS ([3]; 0.48 uM): −0.149
- Dose.FC.LYZ.NS ([3]; […]): 0.116 log2 fold change
- Dose.FC.LYZ.S ([4]; dose 0.08 uM): 0.135 log2 fold change
- Dose.FC.LYZ.S ([4]; dose 0.40 uM): 0.309 log2 fold change
- Dose.FC.LYZ.S ([4]; dose 2.00 uM): 0.223 log2 fold change
- Dose.FC.LYZ.S ([4]; dose 10.00 uM): 0.126 log2 fold change
- Dose.FC.CTG ([5]; 0.06 uM): 0.160 log2 fold change
- Z.CTG ([5]; 0.06 uM): 1.439
- repSSMD.CTG ([5]; 0.06 uM): 0.654
- Dose.FC.CTG ([5]; 0.24 uM): 0.023 log2 fold change
- Z.CTG ([5]; 0.24 uM): 0.206
- repSSMD.CTG ([5]; 0.24 uM): 0.141
- Dose.FC.CTG ([5]; 0.48 uM): 0.083 log2 fold change
- Z.CTG ([5]; 0.48 uM): 0.752
- repSSMD.CTG ([5]; 0.48 uM): 0.527
- Dose.FC.CTG ([5]; […]): 0.120 log2 fold change
- Dose.FC.LYZ.S ([6]; 0.06 uM): 0.067 log2 fold change
- Z.LYZ.S ([6]; 0.06 uM): 0.514
- repSSMD.LYZ.S ([6]; 0.06 uM): 0.855
- Dose.FC.LYZ.S ([6]; 0.24 uM): 0.027 log2 fold change
- Z.LYZ.S ([6]; 0.24 uM): 0.211
- repSSMD.LYZ.S ([6]; 0.24 uM): 0.301
- Dose.FC.LYZ.S ([6]; 0.48 uM): −0.050 log2 fold change
- Z.LYZ.S ([6]; 0.48 uM): −0.387
- repSSMD.LYZ.S ([6]; 0.48 uM): −0.449
- Dose.FC.LYZ.S ([6]; […]): 0.072 log2 fold change
